Our source for the T/C values is PubChem BioAssay AID210 (DTP/NCI, 2004).

Several values for one entry are separate records, joined by “and”; a condition that tells them apart may be missing. Identical values can stand only once. Toxic doses and inconclusive results are not listed.

The experiment concerns CD2F1 mice, ip Colon 26 adenocarcinoma, median survival T/C. Briefly: NCI In Vivo Anticancer Drug Screen. Data for tumor model Colon 26 Adenocarcinoma (intraperitoneal) in CD2F1 (CDF1) mice. Particulars: endpoint: median survival time, higher = longer survival. The method, then: The antitumor activity of compounds was measured in mice bearing transplantable tumors. Survival or tumor size were measured and the results are expressed as the measurement made in the treated group (T) divided by the measurement made in the vehicle treated control group (C). The tumor model used in this assay is Colon 26 Adenocarcinoma (intraperitoneal) in CD2F1 (CDF1) mice

Regarding `O=C1c2c(O)ccc(O)c2C(=O)c2c(NCCNCCO)ccc(NCCNCCO)c21`, the T/C runs as follows: (dose: 0.19 mg/kg/injection, schedule: Q01DX009 (ip), vehicle: saline) 216 % of control and 277 % of control; (dose: 0.25 mg/kg/injection, schedule: Q01DX009 (ip), vehicle: acid diluted with saline) 359 % of control; (dose: 0.38 mg/kg/injection, schedule: Q01DX009 (ip), vehicle: saline) 289 % of control and 416 % of control; (dose: 0.39 mg/kg/injection, schedule: Q01DX009 (ip), vehicle: acid diluted with saline) 259 % of control; (dose: 0.39 mg/kg/injection, schedule: Q01DX009 (sc), vehicle: acid diluted with saline) 104 % of control; (dose: 0.5 mg/kg/injection, schedule: Q01DX009 (ip), vehicle: acid diluted with saline) 365 % of control. The T/C reads like this: (dose: 0.65 mg/kg/injection, schedule: Q01DX009 (ip), vehicle: acid diluted with saline) 305 % of control; (dose: 0.65 mg/kg/injection, schedule: Q01DX009 (sc), vehicle: acid diluted with saline) 104 % of control; (dose: 0.75 mg/kg/injection, schedule: Q01DX009 (ip), vehicle: saline) 289 % of control and 416 % of control; (dose: 1.0 mg/kg/injection, schedule: Q01DX009 (ip), vehicle: acid diluted with saline) 365 % of control; (dose: 1.04 mg/kg/injection, schedule: Q04DX003 (ip), vehicle: acid diluted with saline) 386 % of control; (dose: 1.04 mg/kg/injection, schedule: Q04DX003 (iv), vehicle: acid diluted with saline) 116 % of control. Also, the T/C was 353 % of control (dose: 1.08 mg/kg/injection, schedule: Q01DX009 (ip), vehicle: acid diluted with saline); 112 % of control (dose: 1.08 mg/kg/injection, schedule: Q01DX009 (sc), vehicle: acid diluted with saline); 109 % of control and 277 % of control (dose: 1.5 mg/kg/injection, schedule: Q01DX009 (ip), vehicle: saline); 100 % of control (dose: 1.5 mg/kg/injection, schedule: Q07DX003 (iv), vehicle: acid diluted with saline); 270 % of control (dose: 1.73 mg/kg/injection, schedule: Q04DX003 (ip), vehicle: acid diluted with saline); 120 % of control (dose: 1.73 mg/kg/injection, schedule: Q04DX003 (iv), vehicle: acid diluted with saline). In addition, the T/C (dose: 1.8 mg/kg/injection, schedule: Q01DX009 (ip), vehicle: acid diluted with saline) was 110 % of control; the T/C (dose: 2.0 mg/kg/injection, schedule: Q01DX009 (ip), vehicle: acid diluted with saline) was 365 % of control; the T/C (dose: 2.88 mg/kg/injection, schedule: Q04DX003 (ip), vehicle: acid diluted with saline) is 265 % of control; the T/C (dose: 3.24 mg/kg/injection, schedule: Q01DX001 (ip), vehicle: acid diluted with saline) is 209 % of control; the T/C (dose: 3.24 mg/kg/injection, schedule: Q01DX001 (iv), vehicle: acid diluted with saline) is 114 % of control; the T/C (dose: 4.8 mg/kg/injection, schedule: Q04DX003 (ip), vehicle: acid diluted with saline) was 197 % of control. The T/C is, setting by setting: (dose: 5.4 mg/kg/injection, schedule: Q01DX001 (ip), vehicle: acid diluted with saline) 237 % of control; (dose: 5.4 mg/kg/injection, schedule: Q01DX001 (iv), vehicle: acid diluted with saline) 110 % of control; (dose: 6.0 mg/kg/injection, schedule: Q07DX003 (iv), vehicle: acid diluted with saline) 96 % of control; (dose: 9.0 mg/kg/injection, schedule: Q01DX001 (ip), vehicle: acid diluted with saline) 123 % of control; (dose: 9.0 mg/kg/injection, schedule: Q01DX001 (iv), vehicle: acid diluted with saline) 123 % of control.

For `C[C@]12CC[C@@H]3c4ccc(O)cc4CC[C@H]3[C@@H]1CC[C@@H]2O`, the T/C (dose: 6.25 mg/kg/injection, schedule: Q04DX002 (ip), vehicle: Klucel (hydroxypropylcellulose) (HPC)) is 103 % of control; the T/C (dose: 12.5 mg/kg/injection, schedule: Q04DX002 (ip), vehicle: Klucel (hydroxypropylcellulose) (HPC)) was 95 % of control; the T/C (dose: 25.0 mg/kg/injection, schedule: Q04DX002 (ip), vehicle: Klucel (hydroxypropylcellulose) (HPC)) was 94 % of control; the T/C (dose: 50.0 mg/kg/injection, schedule: Q04DX002 (ip), vehicle: Klucel (hydroxypropylcellulose) (HPC)) was 103 % of control; the T/C (dose: 100.0 mg/kg/injection, schedule: Q04DX002 (ip), vehicle: Klucel (hydroxypropylcellulose) (HPC)) was 100 % of control; the T/C (dose: 200.0 mg/kg/injection, schedule: Q04DX002 (ip), vehicle: Klucel (hydroxypropylcellulose) (HPC)) is 98 % of control.

For `COc1c(O)c2c(c3cc(C(=O)N4CCc5c4c(O)c(OC)c4[nH]c(C(=O)N6CC7CC78C6=CC(=O)c6[nH]cc(C)c68)cc54)[nH]c13)CCN2C(N)=O` (stereo not given), the T/C by setting is: (dose: 6.3 micrograms/kg/injection, schedule: Q01DX009 (ip), vehicle: saline) 104 % of control; (dose: 12.5 micrograms/kg/injection, schedule: Q01DX009 (ip), vehicle: saline) 99 % of control; (dose: 25.0 micrograms/kg/injection, schedule: Q01DX009 (ip), vehicle: saline) 115 % of control; (dose: 50.0 micrograms/kg/injection, schedule: Q01DX009 (ip), vehicle: saline) 150 % of control; (dose: 100.0 micrograms/kg/injection, schedule: Q01DX009 (ip), vehicle: saline) 123 % of control.

In the case of `COc1cccc2c1C(=O)c1c(O)c3c(c(O)c1C2=O)C[C@@](O)(C(=O)CO)C[C@@H]3OC1CC(N(C)C)C(O)C(C)O1` (stereo not given in full), the T/C is, setting by setting: (dose: 2.16 mg/kg/injection, schedule: Q04DX003 (ip), vehicle: water) 103 % of control; (dose: 5.6 mg/kg/injection, schedule: Q07DX003 (iv), vehicle: water) 107 % of control; (dose: 9.0 mg/kg/injection, schedule: Q07DX003 (iv), vehicle: water) 101 % of control; (dose: 14.0 mg/kg/injection, schedule: Q07DX003 (iv), vehicle: water) 92 % of control.

Take `S=P(N1CC1)(N1CC1)N1CC1`: the T/C is, setting by setting: (dose: 1.5 mg/kg/injection, schedule: Q04DX003 (ip), vehicle: saline) 106 % of control; (dose: 3.0 mg/kg/injection, schedule: Q04DX003 (ip), vehicle: saline) 115 % of control; (dose: 12.0 mg/kg/injection, schedule: Q04DX003 (ip), vehicle: saline) 153 % of control.

In the case of `Cc1ncc([N+](=O)[O-])n1CCO`, the T/C (dose: 37.5 mg/kg/injection, schedule: Q04DX003 (ip), vehicle: Klucel (hydroxypropylcellulose) (HPC)) is 114 % of control; the T/C (dose: 75.0 mg/kg/injection, schedule: Q04DX003 (ip), vehicle: Klucel (hydroxypropylcellulose) (HPC)) was 118 % of control; the T/C (dose: 150.0 mg/kg/injection, schedule: Q04DX003 (ip), vehicle: Klucel (hydroxypropylcellulose) (HPC)) is 106 % of control; the T/C (dose: 300.0 mg/kg/injection, schedule: Q04DX003 (ip), vehicle: Klucel (hydroxypropylcellulose) (HPC)) was 109 % of control; the T/C (dose: 600.0 mg/kg/injection, schedule: Q04DX003 (ip), vehicle: Klucel (hydroxypropylcellulose) (HPC)) is 108 % of control.

Take `O=P1(NCCCl)OCCCN1CCCl` (stereo not given): the T/C (dose: 12.5 mg/kg/injection, schedule: Q04DX003 (ip), vehicle: water) is 106 % of control; the T/C (dose: 25.0 mg/kg/injection, schedule: Q04DX003 (ip), vehicle: water) was 113 % of control; the T/C (dose: 200.0 mg/kg/injection, schedule: Q04DX003 (ip), vehicle: water) was 188 % of control.
